The results in this text go back to US7135466B2 (Kirin Beer Kabushiki Kaisha, priority 1999, dated 2006).

For one assay, the target named is T1, c-kit (Homo sapiens, UniProt P10721).
T1 construct: MO7e (human megakaryocytic leukemia cell line) which had been arrested for 20 hr; endogenous in cells; host or cells: MO7e human megakaryocytic leukemia cell line
Briefly: Inhibitory activity against c-kit autophosphorylation (MO7e cells, h-SCF). The settings on record: for IC50: MO7e cells, h-SCF 50 ng/ml, read-out: c-kit IC50; for inhibition at 1 µM: Mo7e, figure in parentheses in −( ), at 1000 nM. Format: cell-based. The method, boiled down: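 Phospho-c-kit ELISA: plate-bound PY-20 anti-phosphotyrosine captures lysate, anti-c-kit plus peroxidase-labelled secondary antibody detect, read at 450 nm. Lysates come from 20 hr-arrested MO7e cells given compound for 1 hr before a 5 min 50 ng/ml h-SCF stimulus.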

The next assay deals with T2, PDGF-Ra (Homo sapiens, UniProt P16234).
T2 construct: host or cells: G-292 human osteosarcoma cells
T2 sequence (P16234 24-1089): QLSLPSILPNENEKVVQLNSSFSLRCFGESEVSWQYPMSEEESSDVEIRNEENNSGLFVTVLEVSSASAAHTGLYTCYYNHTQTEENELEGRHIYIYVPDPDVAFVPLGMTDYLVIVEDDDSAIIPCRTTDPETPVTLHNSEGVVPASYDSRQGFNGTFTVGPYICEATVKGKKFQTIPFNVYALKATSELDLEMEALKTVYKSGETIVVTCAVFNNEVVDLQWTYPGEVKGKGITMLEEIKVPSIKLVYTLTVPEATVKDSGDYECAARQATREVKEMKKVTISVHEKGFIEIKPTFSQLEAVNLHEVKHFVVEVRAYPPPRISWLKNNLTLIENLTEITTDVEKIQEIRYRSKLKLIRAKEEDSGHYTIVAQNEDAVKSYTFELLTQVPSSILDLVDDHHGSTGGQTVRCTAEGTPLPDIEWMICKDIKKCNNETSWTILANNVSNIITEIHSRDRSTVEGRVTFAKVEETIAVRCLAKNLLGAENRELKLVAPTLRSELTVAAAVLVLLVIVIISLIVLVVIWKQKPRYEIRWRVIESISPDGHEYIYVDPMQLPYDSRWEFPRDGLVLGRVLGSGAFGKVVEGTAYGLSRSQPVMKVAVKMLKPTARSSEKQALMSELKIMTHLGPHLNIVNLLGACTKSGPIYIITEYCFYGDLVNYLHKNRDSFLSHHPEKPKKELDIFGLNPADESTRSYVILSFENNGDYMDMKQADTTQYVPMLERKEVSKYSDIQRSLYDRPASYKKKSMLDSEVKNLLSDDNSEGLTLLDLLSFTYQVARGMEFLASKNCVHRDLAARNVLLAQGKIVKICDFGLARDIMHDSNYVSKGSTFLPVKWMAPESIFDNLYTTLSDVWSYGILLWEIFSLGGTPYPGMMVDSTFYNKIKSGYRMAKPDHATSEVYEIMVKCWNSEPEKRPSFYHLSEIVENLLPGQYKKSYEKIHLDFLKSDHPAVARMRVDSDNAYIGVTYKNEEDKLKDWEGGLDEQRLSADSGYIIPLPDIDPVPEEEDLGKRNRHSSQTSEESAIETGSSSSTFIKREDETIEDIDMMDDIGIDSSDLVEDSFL
Briefly: Inhibitory activity against PDGF-Ra phosphorylation by PDGF-AA stimulation using G292. Format: cell-based. The settings on record: Pharmacological Test Example 1; > means inhibition at indicated concentration not more than 50%, < and << not less than 50%; read-out: PDGF (E) IC50. The gist of the method: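 G-292 human osteosarcoma cells, serum-starved overnight in 0.1% FBS, were pretreated with compound in DMSO for 1 hr at 37 °C, then stimulated with 50 ng/ml PDGF-AA for 5 min. Lysates were captured on anti-phosphotyrosine PY-20 plates and probed with anti-PDGF-Ra plus HRP secondary; absorbance read at 450 nm.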

T1 sequence (P10721 26-976): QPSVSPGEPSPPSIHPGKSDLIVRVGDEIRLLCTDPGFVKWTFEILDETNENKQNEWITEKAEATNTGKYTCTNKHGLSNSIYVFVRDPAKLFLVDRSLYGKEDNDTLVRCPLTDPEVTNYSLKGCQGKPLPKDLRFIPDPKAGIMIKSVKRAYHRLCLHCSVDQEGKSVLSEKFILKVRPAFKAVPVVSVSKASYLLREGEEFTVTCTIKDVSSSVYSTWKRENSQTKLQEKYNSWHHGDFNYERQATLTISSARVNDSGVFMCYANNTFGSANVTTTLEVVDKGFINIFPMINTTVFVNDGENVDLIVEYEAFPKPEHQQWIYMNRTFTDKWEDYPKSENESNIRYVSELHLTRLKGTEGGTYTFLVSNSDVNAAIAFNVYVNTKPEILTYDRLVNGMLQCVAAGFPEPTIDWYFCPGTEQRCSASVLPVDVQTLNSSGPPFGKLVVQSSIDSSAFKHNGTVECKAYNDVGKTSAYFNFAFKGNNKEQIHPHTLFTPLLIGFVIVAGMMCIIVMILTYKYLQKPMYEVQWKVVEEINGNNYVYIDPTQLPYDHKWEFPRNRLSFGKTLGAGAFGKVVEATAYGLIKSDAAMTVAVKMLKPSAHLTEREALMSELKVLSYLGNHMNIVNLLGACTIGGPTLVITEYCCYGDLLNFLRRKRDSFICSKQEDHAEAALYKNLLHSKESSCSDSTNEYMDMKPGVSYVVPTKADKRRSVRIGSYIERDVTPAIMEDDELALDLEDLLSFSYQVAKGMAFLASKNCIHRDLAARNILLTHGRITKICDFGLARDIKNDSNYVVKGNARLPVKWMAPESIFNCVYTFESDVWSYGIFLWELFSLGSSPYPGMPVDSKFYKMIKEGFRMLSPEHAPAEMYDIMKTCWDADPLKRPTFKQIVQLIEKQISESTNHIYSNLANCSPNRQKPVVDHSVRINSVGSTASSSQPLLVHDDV

With `CCCCC(CC)OC(=O)Nc1cc(C)c(Oc2ccnc3cc(OC)c(OC)cc23)cc1C` (stereo not drawn) [Example 330, 1-Ethylpentyl N-{4-[(6,7-dimethoxy-4-quinolyl)oxy]-2,5-dimethylphenyl}carbamate], the 50% inhibitory concentration (IC50) at c-kit was 467 nM; at PDGF-Ra it was 12 nM.

As to `CCCCC(CC)OC(=O)Nc1ccc(Oc2ccnc3cc(OC)c(OC)cc23)c(C)c1C` (stereo not drawn) [Example 331, 1-Ethylpentyl N-{4-[(6,7-dimethoxy-4-quinolyl)oxy]-2,3-dimethylphenyl}carbamate], the 50% inhibitory concentration (IC50) on c-kit was 377 nM; at PDGF-Ra, below 10 nM.

As for `CCCC(CCC)OC(=O)Nc1ccc(Oc2ccnc3cc(OC)c(OC)cc23)cc1` [Example 332, 1-Propylbutyl N-{4-[(6,7-dimethoxy-4-quinolyl)oxy]phenyl}carbamate], the concentration for half-maximal inhibition (IC50) was 259 nM at c-kit and below 10 nM at PDGF-Ra.

Turning to `CCCC(CCC)OC(=O)Nc1cc(C)c(Oc2ccnc3cc(OC)c(OC)cc23)cc1C` [Example 333, 1-Propylbutyl N-{4-[(6,7-dimethoxy-4-quinolyl)oxy]-2,5-dimethylphenyl}carbamate], the results for the half-inhibitory concentration (IC50) at c-kit and on PDGF-Ra were 712 nM and 12 nM, respectively.

As for `CCCC(CCC)OC(=O)Nc1ccc(Oc2ccnc3cc(OC)c(OC)cc23)c(C)c1C` [Example 334, 1-Propylbutyl N-{4-[(6,7-dimethoxy-4-quinolyl)oxy]-2,3-dimethylphenyl}carbamate], the IC50 at c-kit is 484 nM; on PDGF-Ra, below 10 nM.

With `CCCCCCOC(=O)Nc1ccc(Oc2ncnc3cc(OC)c(OC)cc23)cc1` [Example 335, Hexyl N-{4-[(6,7-dimethoxy-4-quinazolinyl)oxy]phenyl}carbamate], the 50% inhibitory concentration (IC50) on c-kit was below 30 nM; at PDGF-Ra, below 10 nM.

Consider `CCCCCCOC(=O)Nc1ccc(Oc2ncnc3cc(OC)c(OC)cc23)cc1Cl` [Example 336, Hexyl N-{2-chloro-4-[(6,7-dimethoxy-4-quinazolinyl)oxy]phenyl}carbamate], for which the IC50 on c-kit was determined as 109 nM; at PDGF-Ra it was 14 nM.

With `CCCC(CC)OC(=O)Nc1ccc(Oc2ncnc3cc(OC)c(OC)cc23)cc1` (stereo not drawn) [Example 337, 1-Ethylbutyl N-{4-[(6,7-dimethoxy-4-quinazolinyl)oxy]phenyl}carbamate], the IC50 on c-kit was 198 nM; at PDGF-Ra, below 10 nM.

Turning to `CCCC(CC)OC(=O)Nc1ccc(Oc2ncnc3cc(OC)c(OC)cc23)cc1Cl` (stereo not drawn) [Example 338, 1-Ethylbutyl N-{2-chloro-4-[(6,7-dimethoxy-4-quinazolinyl)oxy]phenyl}carbamate], the half-inhibitory concentration (IC50) stood at 956 nM on c-kit and 25 nM at PDGF-Ra.

`COc1cc2ncnc(Oc3ccc(NC(=O)OCCc4ccccc4)c(Cl)c3)c2cc1OC` [Example 339, Phenethyl N-{2-chloro-4-[(6,7-dimethoxy-4-quinazolinyl)oxy]phenyl}carbamate]: the half-maximal inhibitory concentration (IC50) at c-kit was 197 nM; at PDGF-Ra, 38 nM.

With `COc1cc2ncnc(Oc3ccc(NC(=O)OCC4CCCCC4)cc3)c2cc1OC` [Example 340, Cyclohexylmethyl N-{4-[(6,7-dimethoxy-4-quinazolinyl)oxy]phenyl}carbamate], the values for the IC50 on c-kit and at PDGF-Ra were 107 nM and below 10 nM, respectively.

Consider `COc1cc2ncnc(Oc3ccc(NC(=O)OCC4CCCCC4)c(Cl)c3)c2cc1OC` [Example 341, Cyclohexylmethyl N-{2-chloro-4-[(6,7-dimethoxy-4-quinazolinyl)oxy]phenyl}carbamate], for which the half-maximal inhibitory concentration (IC50) stood at 519 nM on c-kit and 32 nM on PDGF-Ra.

Turning to `COc1cc2ncnc(Oc3ccc(NC(=O)OC4CCCCCC4)cc3)c2cc1OC` [Example 342, Cycloheptyl N-{4-[(6,7-dimethoxy-4-quinazolinyl)oxy]phenyl}carbamate], the IC50 on c-kit is below 30 nM; on PDGF-Ra, below 10 nM.

For `COc1cc2ncnc(Oc3ccc(NC(=O)OC4CCCCCC4)c(Cl)c3)c2cc1OC` [Example 343, Cycloheptyl N-{2-chloro-4-[(6,7-dimethoxy-4-quinazolinyl)oxy]phenyl}carbamate], the IC50 at c-kit is 232 nM; on PDGF-Ra it was below 10 nM.

Regarding `CCCCOC(=O)Nc1ccc(Oc2ncnc3cc(OC)c(OC)cc23)cc1` [Example 344, Butyl N-{4-[(6,7-dimethoxy-4-quinazolinyl)oxy]phenyl}carbamate], the results for the 50% inhibitory concentration (IC50) on c-kit and on PDGF-Ra were below 30 nM and below 10 nM, respectively.

For the molecule `CCC(OC(=O)Nc1ccc(Oc2ncnc3cc(OC)c(OC)cc23)cc1Cl)c1ccccc1` (stereo not drawn) [Example 346, 1-Phenylpropyl N-{2-chloro-4-[(6,7-dimethoxy-4-quinazolinyl)oxy]phenyl}carbamate], the inhibition at 1 µM on c-kit stood at 37%. Moreover, on PDGF-Ra, the IC50 worked out at 41 nM.

Take `COc1cc2nccc(Oc3cc(C)c(NC(=O)OC(C)C)cc3C)c2cc1OC` [Example 347, Isopropyl N-{4-[(6,7-dimethoxy-4-quinolyl)oxy]-2,5-dimethylphenyl}carbamate]: the half-inhibitory concentration (IC50) on c-kit came to 228 nM; on PDGF-Ra it was 77 nM.

Regarding `COc1cc2nccc(Oc3ccc(NC(=O)OCC4CCCCCC4)cc3)c2cc1OC` [Example 348, Cycloheptylmethyl N-{4-[(6,7-dimethoxy-4-quinolyl)oxy]phenyl}carbamate], the IC50 on c-kit is 90 nM; on PDGF-Ra it was below 10 nM.

On to `COc1cc2nccc(Oc3cc(C)c(NC(=O)OCC4CCCCCC4)cc3C)c2cc1OC` [Example 349, Cycloheptylmethyl N-{4-[(6,7-dimethoxy-4-quinolyl)oxy]-2,5-dimethylphenyl}carbamate], for which the figures for the IC50 on c-kit and on PDGF-Ra were 309 nM and 12 nM, respectively.

For the molecule `COc1cc2nccc(Oc3ccc(NC(=O)OCC4CCCCCC4)c(C)c3C)c2cc1OC` [Example 350, Cycloheptylmethyl N-{4-[(6,7-dimethoxy-4-quinolyl)oxy]-2,3-dimethylphenyl}carbamate], the half-inhibitory concentration (IC50) on c-kit was 238 nM; at PDGF-Ra it was below 10 nM.

Take `COc1cc2ncnc(Oc3ccc(NC(=O)OCC4CCCCCC4)cc3)c2cc1OC` [Example 351, Cycloheptylmethyl N-{4-[(6,7-dimethoxy-4-quinazolinyl)oxy]phenyl}carbamate]: the half-inhibitory concentration (IC50) is 64 nM on c-kit and below 10 nM at PDGF-Ra.

With `COc1cc2ncnc(Oc3ccc(NC(=O)OCC4CCCCCC4)c(Cl)c3)c2cc1OC` [Example 352, Cycloheptylmethyl N-{2-chloro-4-[(6,7-dimethoxy-4-quinazolinyl)oxy]phenyl}carbamate], the half-maximal inhibitory concentration (IC50) at c-kit is 195 nM; at PDGF-Ra, below 10 nM.

Take `COc1cc2nccc(Oc3cc(C)c(NC(=O)OCCC4CCCCC4)cc3C)c2cc1OC` [Example 354, 2-Cyclohexylethyl N-{4-[(6,7-dimethoxy-4-quinolyl)oxy]-2,5-dimethylphenyl}carbamate]: the IC50 turned out to be 384 nM at c-kit and 15 nM on PDGF-Ra.

For `COc1cc2nccc(Oc3ccc(NC(=O)OCCC4CCCCC4)c(C)c3C)c2cc1OC` [Example 355, 2-Cyclohexylethyl N-{4-[(6,7-dimethoxy-4-quinolyl)oxy]-2,3-dimethylphenyl}carbamate], the values for the IC50 on c-kit and on PDGF-Ra were 252 nM and 24 nM, respectively.

On to `COc1cc2ncnc(Oc3ccc(NC(=O)OCCC4CCCCC4)cc3)c2cc1OC` [Example 356, 2-Cyclohexylethyl N-{4-[(6,7-dimethoxy-4-quinazolinyl)oxy]phenyl}carbamate], for which the 50% inhibitory concentration (IC50) on c-kit was 66 nM; at PDGF-Ra it was below 10 nM.

For the molecule `COc1cc2ncnc(Oc3ccc(NC(=O)OCCC4CCCCC4)c(Cl)c3)c2cc1OC` [Example 357, 2-Cyclohexylethyl N-{2-chloro-4-[(6,7-dimethoxy-4-quinazolinyl)oxy]phenyl}carbamate], the half-maximal inhibitory concentration (IC50) is 116 nM on c-kit and below 10 nM at PDGF-Ra.

In the case of `CCC(CC)OC(=O)Nc1ccc(Oc2ccnc3cc(OC)c(OC)cc23)cc1` [Example 358, 1-Ethylpropyl N-{4-[(6,7-dimethoxy-4-quinolyl)oxy]phenyl}carbamate], the half-inhibitory concentration (IC50) at c-kit was 366 nM; at PDGF-Ra it was below 10 nM.

With `CCC(CC)OC(=O)Nc1cc(C)c(Oc2ccnc3cc(OC)c(OC)cc23)cc1C` [Example 359, 1-Ethylpropyl N-{4-[(6,7-dimethoxy-4-quinolyl)oxy]-2,5-dimethylphenyl}carbamate], the IC50 at c-kit stood at 274 nM; on PDGF-Ra, 28 nM.

Take `CCC(CC)OC(=O)Nc1ccc(Oc2ccnc3cc(OC)c(OC)cc23)c(C)c1C` [Example 360, 1-Ethylpropyl N-{4-[(6,7-dimethoxy-4-quinolyl)oxy]-2,3-dimethylphenyl}carbamate]: the half-inhibitory concentration (IC50) at c-kit was 189 nM; at PDGF-Ra, 16 nM.

`CCC(CC)OC(=O)Nc1ccc(Oc2ncnc3cc(OC)c(OC)cc23)cc1` [Example 361, 1-Ethylpropyl N-{4-[(6,7-dimethoxy-4-quinazolinyl)oxy]phenyl}carbamate]: the IC50 on c-kit is 278 nM; at PDGF-Ra it was below 10 nM.

Take `CCC(CC)OC(=O)Nc1ccc(Oc2ncnc3cc(OC)c(OC)cc23)cc1Cl` [Example 362, 1-Ethylpropyl N-{2-chloro-4-[(6,7-dimethoxy-4-quinazolinyl)oxy]phenyl}carbamate]: the inhibition at 1 µM on c-kit stood at 26%. The half-inhibitory concentration (IC50) on PDGF-Ra turned out to be 42 nM.

Consider `COc1cc2nccc(Oc3ccc(NC(=O)OC4CCCC4)cc3)c2cc1OC` [Example 363, Cyclopentyl N-{4-[(6,7-dimethoxy-4-quinolyl)oxy]phenyl}carbamate], for which the values for the IC50 on c-kit and on PDGF-Ra were 72 nM and below 10 nM, respectively.

Regarding `COc1cc2nccc(Oc3cc(C)c(NC(=O)OC4CCCC4)cc3C)c2cc1OC` [Example 364, Cyclopentyl N-{4-[(6,7-dimethoxy-4-quinolyl)oxy]-2,5-dimethylphenyl}carbamate], the half-inhibitory concentration (IC50) on c-kit is 98 nM; on PDGF-Ra it was 29 nM.
